# How the values were obtained:
# [1] = biological target: Sodium-dependent noradrenaline transporter (Homo sapiens, UniProt P23975); assay: Inhibition of [3H]NA uptake at human recombinant NA transporter expressed in HEK293 cells; format: cell-based
# [2] = biological target: Sodium-dependent serotonin transporter (Homo sapiens, UniProt P31645); assay: Inhibition of [3H]5-HT uptake at human recombinant 5HT transporter expressed in HEK293 cells; format: cell-based
# [3] = biological target: Sodium-dependent dopamine transporter (Homo sapiens, UniProt Q01959); assay: Inhibition of [3H]DA uptake at human recombinant DAT expressed in HEK293 cells; format: cell-based
# Chain of Sodium-dependent dopamine transporter (Q01959 whole entry): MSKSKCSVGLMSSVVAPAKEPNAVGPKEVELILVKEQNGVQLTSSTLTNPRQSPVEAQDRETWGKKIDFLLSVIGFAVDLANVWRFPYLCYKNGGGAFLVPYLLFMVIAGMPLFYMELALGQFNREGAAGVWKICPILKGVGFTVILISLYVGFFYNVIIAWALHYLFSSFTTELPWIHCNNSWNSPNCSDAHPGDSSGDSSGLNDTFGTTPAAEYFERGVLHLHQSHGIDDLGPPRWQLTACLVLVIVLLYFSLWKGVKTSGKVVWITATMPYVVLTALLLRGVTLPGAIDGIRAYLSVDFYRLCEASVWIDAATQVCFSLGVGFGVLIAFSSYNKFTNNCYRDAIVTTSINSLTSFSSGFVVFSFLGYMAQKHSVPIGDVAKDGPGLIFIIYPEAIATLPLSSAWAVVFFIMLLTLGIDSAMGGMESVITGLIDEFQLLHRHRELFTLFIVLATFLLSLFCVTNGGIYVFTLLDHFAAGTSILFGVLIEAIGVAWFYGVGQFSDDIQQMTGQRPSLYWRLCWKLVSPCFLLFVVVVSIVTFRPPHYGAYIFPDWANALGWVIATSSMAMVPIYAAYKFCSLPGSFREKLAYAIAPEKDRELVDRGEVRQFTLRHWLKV
# [4] = Intrinsic clearance per 10^6 cells in human hepatocytes; format: ADME, cell-based, Liver, Hepatocyte
# Cytochrome P450 2D6 = Cytochrome P450 2D6 (Homo sapiens, UniProt P10635); assay: Inhibition of CYP2D6; format: ADME
# Chain of Cytochrome P450 2D6 (P10635 whole entry): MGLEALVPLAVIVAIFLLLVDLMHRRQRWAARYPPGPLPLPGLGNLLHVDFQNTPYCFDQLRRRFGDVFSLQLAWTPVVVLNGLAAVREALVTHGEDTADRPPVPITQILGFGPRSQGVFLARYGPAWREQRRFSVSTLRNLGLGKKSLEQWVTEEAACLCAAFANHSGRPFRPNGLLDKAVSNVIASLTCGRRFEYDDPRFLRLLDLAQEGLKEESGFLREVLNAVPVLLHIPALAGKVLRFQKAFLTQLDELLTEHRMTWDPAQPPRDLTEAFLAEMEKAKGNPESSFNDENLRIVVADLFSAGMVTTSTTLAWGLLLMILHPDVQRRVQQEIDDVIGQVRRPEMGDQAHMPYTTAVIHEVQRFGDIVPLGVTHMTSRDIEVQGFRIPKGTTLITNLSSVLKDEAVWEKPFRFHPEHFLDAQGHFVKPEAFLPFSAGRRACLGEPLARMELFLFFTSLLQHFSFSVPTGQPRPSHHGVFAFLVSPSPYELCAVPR
# [5] = Intrinsic clearance in human liver microsomes; format: ADME, Microsome
# Cytochrome P450 3A4 = Cytochrome P450 3A4 (Homo sapiens, UniProt P08684); assay: Inhibition of CYP3A4; format: ADME
# Chain of Cytochrome P450 3A4 (P08684 whole entry): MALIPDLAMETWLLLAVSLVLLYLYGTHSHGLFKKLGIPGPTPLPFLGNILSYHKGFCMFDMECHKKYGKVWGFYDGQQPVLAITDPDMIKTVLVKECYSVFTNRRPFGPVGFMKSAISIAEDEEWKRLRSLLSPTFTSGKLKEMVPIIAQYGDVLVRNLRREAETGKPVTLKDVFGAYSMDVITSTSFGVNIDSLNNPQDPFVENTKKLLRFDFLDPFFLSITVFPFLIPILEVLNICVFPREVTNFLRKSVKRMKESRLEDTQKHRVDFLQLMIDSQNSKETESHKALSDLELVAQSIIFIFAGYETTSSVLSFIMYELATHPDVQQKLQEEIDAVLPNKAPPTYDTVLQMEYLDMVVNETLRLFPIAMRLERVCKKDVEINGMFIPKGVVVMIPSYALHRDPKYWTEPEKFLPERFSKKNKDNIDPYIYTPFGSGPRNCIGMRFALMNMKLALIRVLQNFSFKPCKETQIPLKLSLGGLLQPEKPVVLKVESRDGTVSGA
# Chain of Sodium-dependent noradrenaline transporter (P23975 whole entry): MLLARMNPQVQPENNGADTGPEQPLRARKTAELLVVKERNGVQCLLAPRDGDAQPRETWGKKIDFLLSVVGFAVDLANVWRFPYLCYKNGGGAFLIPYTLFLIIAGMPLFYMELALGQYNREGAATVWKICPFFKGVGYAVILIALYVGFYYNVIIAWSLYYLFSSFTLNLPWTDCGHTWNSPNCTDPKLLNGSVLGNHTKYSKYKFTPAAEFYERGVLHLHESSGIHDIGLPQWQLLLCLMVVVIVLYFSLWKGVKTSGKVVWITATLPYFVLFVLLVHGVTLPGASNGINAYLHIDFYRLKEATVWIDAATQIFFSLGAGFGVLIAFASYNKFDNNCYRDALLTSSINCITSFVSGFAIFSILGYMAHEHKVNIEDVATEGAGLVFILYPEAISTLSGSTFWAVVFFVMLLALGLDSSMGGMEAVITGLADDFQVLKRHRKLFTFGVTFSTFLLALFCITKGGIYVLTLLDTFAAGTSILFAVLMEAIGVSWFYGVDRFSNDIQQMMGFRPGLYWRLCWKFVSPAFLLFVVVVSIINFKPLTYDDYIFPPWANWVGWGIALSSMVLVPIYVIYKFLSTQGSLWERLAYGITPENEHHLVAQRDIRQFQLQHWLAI
# Chain of Sodium-dependent serotonin transporter (P31645 whole entry): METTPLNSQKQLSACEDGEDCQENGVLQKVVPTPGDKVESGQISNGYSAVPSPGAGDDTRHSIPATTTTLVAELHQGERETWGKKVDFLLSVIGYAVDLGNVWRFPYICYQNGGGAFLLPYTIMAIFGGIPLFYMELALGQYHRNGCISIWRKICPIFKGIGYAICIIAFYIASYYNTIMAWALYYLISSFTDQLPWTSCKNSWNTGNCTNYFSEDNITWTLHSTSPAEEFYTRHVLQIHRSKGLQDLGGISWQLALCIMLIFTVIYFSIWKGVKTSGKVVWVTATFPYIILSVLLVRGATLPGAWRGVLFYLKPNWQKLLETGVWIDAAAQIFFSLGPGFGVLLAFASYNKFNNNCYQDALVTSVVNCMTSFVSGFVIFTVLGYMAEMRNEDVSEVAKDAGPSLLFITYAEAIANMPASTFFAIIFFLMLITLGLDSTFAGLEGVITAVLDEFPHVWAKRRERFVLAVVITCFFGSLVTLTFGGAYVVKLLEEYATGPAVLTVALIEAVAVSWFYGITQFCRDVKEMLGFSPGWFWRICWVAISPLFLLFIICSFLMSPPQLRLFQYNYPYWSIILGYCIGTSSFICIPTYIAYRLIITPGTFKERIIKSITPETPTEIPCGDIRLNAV
SMILES,IC50 [1],IC50 [2],IC50 [3],hepatocyte CLint [4],IC50 (Cytochrome P450 2D6),microsomal CLint [5],IC50 (Cytochrome P450 3A4)
CNCc1cnccc1Oc1ccc(Cl)cc1Br,0.085 µM,0.023 µM,–,–,–,–,–
CN(C)Cc1cnccc1Oc1ccc(Cl)cc1Br,0.026 µM,0.004 µM,1.97 µM,–,–,–,–
CNCc1cnc(C)cc1Oc1ccc(Cl)cc1C,0.051 µM,0.006 µM,–,–,–,–,–
CCc1cc(Cl)ccc1Oc1cc(C)ncc1CN(C)C,0.03 µM,0.019 µM,> 34 µM,–,–,–,–
CNCc1cnccc1Oc1ccc(Cl)cc1C,0.246 µM,0.014 µM,–,–,–,–,–
Cc1cc(Oc2ccc(Cl)cc2C)c(CN(C)C)cn1,0.026 µM,0.006 µM,1.68 µM,< 5 µL/min/1e6 cells,> 10 µM,< 7 µL/min/mg,> 10 µM
CCc1cc(Cl)ccc1Oc1ccncc1CNC,0.086 µM,0.046 µM,–,–,–,–,–
COc1cc(Cl)ccc1Oc1ccncc1CN(C)C,0.047 µM,0.006 µM,10.2 µM,–,–,–,–
CNCc1cnccc1Oc1ccc(Cl)cc1OC,0.282 µM,0.014 µM,–,–,–,–,–
CNCc1cnccc1Oc1ccc(Cl)cc1Cl,0.159 µM,0.039 µM,–,–,–,–,–
CN(C)Cc1cnccc1Oc1ccc(Cl)cc1Cl,0.025 µM,0.008 µM,2.43 µM,–,–,–,–
CCOc1cc(Cl)ccc1Oc1ccncc1CNC,0.394 µM,0.024 µM,–,–,–,–,–
CNCc1cnc(C)cc1Oc1ccc(C)cc1OC,0.257 µM,0.018 µM,–,–,–,–,–
CNCc1cnc(C)cc1Oc1ccc(F)cc1C,> 0.4 µM,0.231 µM,–,–,–,–,–
Cc1cc(Cl)ccc1Oc1ccncc1CN(C)C,0.036 µM,0.003 µM,3.23 µM,–,–,–,–
CCc1cc(Cl)ccc1Oc1ccncc1CN(C)C,0.018 µM,0.011 µM,> 38 µM,–,–,–,–
CNCc1cc(C(=O)N(C)C)ccc1Oc1ccc(Cl)cc1OC,–,0.007 µM,> 4 µM,21 µL/min/1e6 cells,–,–,–
CNCc1cnc(C)cc1Oc1ccc(Cl)cc1Br,0.038 µM,0.01 µM,–,–,–,–,–
CNCc1cnc(C)cc1Oc1ccc(Cl)cc1OC,0.083 µM,0.004 µM,–,–,–,–,–
COc1cc(Cl)ccc1Oc1cc(C)ncc1CN(C)C,0.026 µM,0.013 µM,5.04 µM,< 5 µL/min/1e6 cells,> 10 µM,< 7 µL/min/mg,> 10 µM
CCc1cc(Cl)ccc1Oc1cc(C)ncc1CNC,0.022 µM,0.02 µM,34.1 µM,–,–,–,–

# — ChEMBL document CHEMBL1145616, “Pyridyl-phenyl ether monoamine reuptake inhibitors: Impact of lipophilicity on dual SNRI pharmacology and off-target promiscuity” (Bioorg Med Chem Lett, 2008)
